# From PubChem BioAssay (NCI)
#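 Five compound concentrations were applied to cells in 96-well plates for 48 hours; endpoints were derived by simple linear interpolation of the resulting dose-response curve. At the GI50, growth is halved. TGI: total growth inhibition.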
# How the values were obtained:
# Assay in all cases: NCI-60 cell line screen, 48 h
# [1] = system: MCF7 breast
# [2] = system: SF-539 CNS
# [3] = system: OVCAR-3 ovarian
# [4] = system: HL-60(TB) leukemia
# [5] = system: HCT-116 colon
# [6] = system: RPMI-8226 leukemia
# [7] = system: SF-268 CNS
# [8] = system: RXF 393 renal
# [9] = system: COLO 205 colon
# [10] = system: IGROV1 ovarian
SMILES,TGI [1] [µM],TGI [2] [µM],TGI [3] [µM],TGI [4] [µM],TGI [5] [µM],TGI [6] [µM],TGI [7] [µM],TGI [8] [µM],TGI [9] [µM],TGI [10] [µM],GI50 [1] [µM],GI50 [2] [µM],GI50 [3] [µM],GI50 [4] [µM],GI50 [5] [µM],GI50 [6] [µM],GI50 [7] [µM],GI50 [8] [µM],GI50 [9] [µM],GI50 [10] [µM]
Cn1cnc([N+](=O)[O-])c1Sc1nc(N)nc2c1ncn2C1CC(O)C(CO)O1 (centres undefined),> 54.2,> 100,> 36.4,> 47.1,> 100,36.2,> 100,> 100,> 34.3,> 100,,,,,,,,,,
O=C(c1ccccc1)C(CN1CCCCC1)c1ccccc1 (centres undefined),37.8,3.94,3.25,3.86,2.46,2.88,16.1,2.74,3.14,3.34,2.81,1.96,1.78,1.42,1.13,0.539,3.98,1.42,1.57,1.5
NCC1OC(n2cnc3c(N)ncnc32)CC1O (centres undefined),> 100,> 100,> 100,> 100,> 100,> 100,> 100,> 100,> 100,> 100,,,,,,,,,,
COc1c2ccoc2c(OC)c2oc(=O)ccc12,> 100,> 100,> 100,> 100,> 100,> 100,> 100,> 100,> 100,> 100,,,,,,,,,,
NCCOCCOCCNc1nc(-c2ccccc2)nc(N2CCN(c3ccccn3)CC2)n1,32.2,33.1,30.4,26.5,22.6,34.2,30.8,22.8,21.1,34.4,12.5,17.6,16.6,9.47,10,13.5,15.9,10.1,6.35,18.2
Nc1c(C(=O)Nc2cccc(F)c2)sc2nc3c(cc12)C(=O)CCC3,> 100,> 100,> 100,> 100,> 100,> 100,> 100,,0.751,> 100,0.304,0.287,0.351,0.322,0.447,> 34.5,37,0.248,0.273,3.02
C=C1CCC2C3(C)COC(c4ccccc4)OC3CCC2(C)C1/C=C/C1=CCOC1=O (centres undefined),7.59,21.2,8.84,3.91,5.64,5.69,22.5,8.65,16.8,11.9,1.96,8.71,2.79,1.27,1.95,1.69,5.22,2.93,4.09,3.4
CC(=O)C1=C(O)C=C2Oc3c(C(=O)/C=C/c4c(Cl)cccc4Cl)c(O)c(C)c(O)c3[C@]2(C)C1=O,2.75,4.91,4.22,7.08,2.7,1.77,3.73,5.03,5.25,9.37,0.436,2.19,1.12,0.849,0.536,0.5,0.856,2.32,2.34,1.56
O=C1C=CC(=Nc2cc(Br)c(O)c(Br)c2)C=C1,> 100,64.1,> 100,51.2,26.3,> 100,> 100,63.8,52,68,7.87,21.5,19.7,7.65,11.5,11.9,24.6,12.5,20,22.7
